From ChEMBL document CHEMBL4295262, “Evaluation of the utility of stem-cell derived cardiomyocytes for drug proarrhythmic potential” (2019)
Values belong to the compound of their own block, whether it stands above or below them.

Tests used:
Settings in all cases: human, ipsc-cm
[1] = (§1) Electrical activity assay on cell lines treated with a given drug. DMSO was used as a vehicle and a control, unblinded dofetilide was used as a control.
[2] = as §1; remark: listed apart in the source
[3] = as §1; remark: listed apart in the source
[4] = as §1; format: ADME, cell-based
[5] = as §1; format: ADME, cell-based; design: FPDc: unit not given here
[6] = 0.09507 µM, concentration (um) 0.0950736 uM
[7] = 0.3004 µM, concentration (um) 0.300433 uM
[8] = 0.9494 µM, concentration (um) 0.949367 uM

Structure (SMILES): CN1CCN(C2=Nc3cc(Cl)ccc3Nc3ccccc32)CC1 [CLOZAPINE]
APDc ([1]; 0.09507 µM): 47.87 | FPD measurement ([1]; 0.09507 µM): 47.87 FPDc | APDc ([1]; 0.3004 µM): 55.24 | FPD measurement ([1]; 0.3004 µM): 55.24 FPDc | APDc ([1]; 0.9494 µM): 62.1 | FPD measurement ([1]; 0.9494 µM): 62.1 FPDc | APDc ([1]; 3 µM): 73.69 | FPD measurement ([1]; 3 µM): 73.69 FPDc | FPDc ([2]; 0.09507 µM): 68.88 | FPD measurement ([2]; 0.3004 µM): 5 Values Out Of 5 Were Excluded Due To Quiescence Or 0 Apdc | FPDc ([2]; 0.3004 µM): 59.23 | FPD measurement ([2]; 0.9494 µM): 5 Values Out Of 5 Were Excluded Due To Quiescence Or 0 Apdc | FPDc ([2]; 0.9494 µM): 63.68 | FPDc ([2]; 3 µM): 65.29 | FPD measurement ([3]; 0.09507 µM): 1 Values Out Of 1 Were Excluded Due To Quiescence Or 0 Fpdc | FPDc ([3]; 0.09507 µM): 1 Values Out Of 1 Were Excluded Due To Quiescence Or 0 Fpdc | FPD measurement ([3]; 0.3004 µM): 1 Values Out Of 1 Were Excluded Due To Quiescence Or 0 Fpdc | FPDc ([3]; 0.3004 µM): 1 Values Out Of 1 Were Excluded Due To Quiescence Or 0 Fpdc | FPD measurement ([3]; 0.9494 µM): 1 Values Out Of 1 Were Excluded Due To Quiescence Or 0 Fpdc | FPDc ([3]; 0.9494 µM): 1 Values Out Of 1 Were Excluded Due To Quiescence Or 0 Fpdc | FPD measurement ([3]; 3 µM): 1 Values Out Of 1 Were Excluded Due To Quiescence Or 0 Fpdc | FPDc ([3]; 3 µM): 1 Values Out Of 1 Were Excluded Due To Quiescence Or 0 Fpdc | FPD measurement [4, 6]: 5 Values Out Of 5 Were Excluded Due To Quiescence Or 0 Apdc | FPDc [4, 6]: 25.04 | FPD measurement [4, 7]: 5 Values Out Of 5 Were Excluded Due To Quiescence Or 0 Apdc | FPDc [4, 7]: 24.94 | FPD measurement [4, 8]: 5 Values Out Of 5 Were Excluded Due To Quiescence Or 0 Apdc | FPDc [4, 8]: 25.07 | FPD measurement ([4]; 3 µM, concentration (um) 3 uM): 5 Values Out Of 5 Were Excluded Due To Quiescence Or 0 Apdc | FPDc ([4]; 3 µM, concentration (um) 3 uM): 22.78

APDc ([1]; 0.1 µM): 53 | FPD measurement ([1]; 0.1 µM): 53 FPDc | APDc ([1]; 1 µM): 57.83 | FPD measurement ([1]; 1 µM): 57.83 FPDc | APDc ([1]; 10 µM): 63.09 | FPD measurement ([1]; 10 µM): 63.09 FPDc | APDc ([1]; 100 µM): 74.46 | FPD measurement ([1]; 100 µM): 74.46 FPDc | FPDc ([2]; 0.1 µM): 67.46 | FPDc ([2]; 1 µM): 77.46 | FPDc ([2]; 10 µM): 87.68 | FPDc ([2]; 100 µM): 95.17 | FPDc ([5]; 0.1 µM, concentration (um) 0.1 uM): 43.08 | FPDc ([5]; 1 µM, concentration (um) 1 uM): 54.07 | FPDc ([5]; 10 µM, concentration (um) 10 uM): 64.26 | FPDc ([5]; 100 µM, concentration (um) 100 uM): 63.72
Structure (SMILES): Cc1cccc(C)c1OCC(C)N (centres undefined) [MEXILETINE]
FPD measurement ([3]; 0.1 µM): 1 Values Out Of 1 Were Excluded Due To Quiescence Or 0 Fpdc | FPDc ([3]; 0.1 µM): 1 Values Out Of 1 Were Excluded Due To Quiescence Or 0 Fpdc | FPD measurement ([3]; 1 µM): 1 Values Out Of 1 Were Excluded Due To Quiescence Or 0 Fpdc | FPDc ([3]; 1 µM): 1 Values Out Of 1 Were Excluded Due To Quiescence Or 0 Fpdc | FPD measurement ([3]; 10 µM): 1 Values Out Of 1 Were Excluded Due To Quiescence Or 0 Fpdc | FPDc ([3]; 10 µM): 1 Values Out Of 1 Were Excluded Due To Quiescence Or 0 Fpdc | FPD measurement ([3]; 100 µM): 1 Values Out Of 1 Were Excluded Due To Quiescence Or 0 Fpdc | FPDc ([3]; 100 µM): 1 Values Out Of 1 Were Excluded Due To Quiescence Or 0 Fpdc
